Source: the NIST ThermoML archive (doi:10.1021/je1013476)
± gives the expanded uncertainty stated by the source.

Key:
[1] = excess molar enthalpy (molar enthalpy of mixing); xn = mol fraction of the nth substance listed; settings: 303.15 K, 101 kPa, Liquid, Calvet calorimetry
[2] = xn = mol fraction of the nth substance listed; settings: 101 kPa, Liquid; for viscosity: Capillary tube (Ostwald / Ubbelohde) method; for mass density: Vibrating tube method

CCOC(=O)OCC [diethyl carbonate] + CCO
[1]
Settings	excess molar enthalpy [kcal/mol]
x1 = 0.06432	0.0943 ± 0.00206
x1 = 0.1113	0.152 ± 0.00335
x1 = 0.1833	0.226 ± 0.00478
x1 = 0.2439	0.276 ± 0.00598
x1 = 0.3034	0.317 ± 0.00669
x1 = 0.3739	0.356 ± 0.00765
x1 = 0.4258	0.378 ± 0.00813
x1 = 0.5066	0.395 ± 0.00837
x1 = 0.5445	0.395 ± 0.00837
x1 = 0.64	0.39 ± 0.00837
x1 = 0.7134	0.366 ± 0.00789
x1 = 0.7663	0.335 ± 0.00717
x1 = 0.8243	0.285 ± 0.00621
x1 = 0.8998	0.189 ± 0.00406
x1 = 0.9557	0.0946 ± 0.00208

[2]
Settings	mass density [kg/m3]	viscosity [mPa·s]
288.15 K, x1 = 0.05544	813.88 ± 0.11	1.181 ± 0.011
288.15 K, x1 = 0.1	828.53 ± 0.11	1.111 ± 0.011
288.15 K, x1 = 0.197	856.33 ± 0.1	0.996 ± 0.01
288.15 K, x1 = 0.2998	881.02 ± 0.09	0.917 ± 0.009
288.15 K, x1 = 0.4062	902.55 ± 0.09	0.864 ± 0.009
288.15 K, x1 = 0.5039	919.48 ± 0.08	0.838 ± 0.008
288.15 K, x1 = 0.613	935.91 ± 0.08	0.821 ± 0.008
288.15 K, x1 = 0.6939	946.73 ± 0.08	0.815 ± 0.008
288.15 K, x1 = 0.7942	958.83 ± 0.08	0.819 ± 0.008
288.15 K, x1 = 0.8992	970.29 ± 0.07	0.834 ± 0.008
288.15 K, x1 = 0.9744	977.89 ± 0.07	0.856 ± 0.008
293.15 K, x1 = 0.05208	808.2 ± 0.12	1.115 ± 0.011
293.15 K, x1 = 0.09645	822.76 ± 0.11	1.045 ± 0.01
293.15 K, x1 = 0.1983	851.8 ± 0.1	0.93 ± 0.009
293.15 K, x1 = 0.2931	874.46 ± 0.1	0.867 ± 0.009
293.15 K, x1 = 0.4089	897.78 ± 0.09	0.818 ± 0.008
293.15 K, x1 = 0.4945	912.58 ± 0.09	0.794 ± 0.008
293.15 K, x1 = 0.6111	930.21 ± 0.08	0.777 ± 0.008
293.15 K, x1 = 0.6787	939.26 ± 0.08	0.771 ± 0.008
293.15 K, x1 = 0.7692	950.39 ± 0.08	0.77 ± 0.008
293.15 K, x1 = 0.8767	962.34 ± 0.08	0.779 ± 0.008
293.15 K, x1 = 0.9444	969.33 ± 0.08	0.791 ± 0.008
303.15 K, x1 = 0.04589	797.14 ± 0.12	0.937 ± 0.009
303.15 K, x1 = 0.09693	813.63 ± 0.11	0.88 ± 0.009
303.15 K, x1 = 0.1943	840.98 ± 0.11	0.799 ± 0.008
303.15 K, x1 = 0.2843	862.32 ± 0.1	0.747 ± 0.007
303.15 K, x1 = 0.4098	887.33 ± 0.09	0.703 ± 0.007
303.15 K, x1 = 0.5128	904.7 ± 0.09	0.686 ± 0.007
303.15 K, x1 = 0.6176	920.01 ± 0.09	0.678 ± 0.007
303.15 K, x1 = 0.6907	929.62 ± 0.08	0.675 ± 0.007
303.15 K, x1 = 0.7896	941.46 ± 0.08	0.675 ± 0.007
303.15 K, x1 = 0.8863	951.96 ± 0.08	0.681 ± 0.007
303.15 K, x1 = 0.9676	960.23 ± 0.08	0.694 ± 0.007
313.15 K, x1 = 0.04956	789.32 ± 0.12	0.761 ± 0.008
313.15 K, x1 = 0.09649	804.16 ± 0.12	0.715 ± 0.007
313.15 K, x1 = 0.207	834.28 ± 0.11	0.647 ± 0.007
313.15 K, x1 = 0.2847	852.21 ± 0.11	0.618 ± 0.006
313.15 K, x1 = 0.3982	874.66 ± 0.1	0.591 ± 0.006
313.15 K, x1 = 0.5049	892.56 ± 0.1	0.578 ± 0.006
313.15 K, x1 = 0.6079	907.66 ± 0.09	0.574 ± 0.006
313.15 K, x1 = 0.6227	909.67 ± 0.09	0.573 ± 0.006
313.15 K, x1 = 0.6895	918.3 ± 0.09	0.575 ± 0.006
313.15 K, x1 = 0.7826	929.4 ± 0.09	0.58 ± 0.006
313.15 K, x1 = 0.8924	941.3 ± 0.08	0.594 ± 0.006
313.15 K, x1 = 0.9563	947.79 ± 0.08	0.606 ± 0.006
